Measurements taken from patent US6660310B2, “Method to infuse fresh fruits and vegetables with an agent” (American Moxie LLC, priority 2000, dated 2003).
Peptide text beside a SMILES is read from it.

Assays:
[1] = system: GabaA, Benzodiazepine (Central) Site; test: GabaA, Benzodiazepine (Central) Site Binding Assay; parameters: species or system Bovine
[2] = extracts from Experiment 5; tested only in apple and strawberry
[3] = Taste test: taste or "heat" of materials infused with capsaicin; settings: carrots, apples and squash infused with 2% capsaicin
From the text: Carrots, apples and squash were infused with 2% capsaicin (the active constituent of cayenne pepper) with standard procedures, as described above, and the taste or “heat” of the infused materials was compared with untreated control materials.

[4] = Taste test: sweetness of materials infused with sweetening agents; settings: apples, strawberries
From the text: Apples, strawberries, carrots and celery were infused with either aspartame or saccharin with standard procedures, as described above, and sweetness was compared with untreated control. […] Clearly an optimal amount of sweetening agent would be lower. The taste test was repeated using a 0.2% concentration of each sweetening agent with the four biological materials.

[5] = carrots and celery infused with standard procedures
[6] = carrots and celery, 0.2% concentration of sweetening agent

| Compound | sweetness compared with untreated control [4, 5] | sweetness compared with untreated control [4, 6] | further results |
| --- | --- | --- | --- |
| CN1C(=O)CN=C(c2ccccc2F)c2cc([N+](=O)[O-])ccc21 [Flunitrazepam, flunitrazepam] | – | – | specific binding of extract containing the infused agent ([1]; extracts from Experiment 5, tested only in celery and tomato): demonstrated specific binding |
| C[C@]1(O)CC[C@H]2[C@@H]3CCC4=CC(=O)CCC4=C3C=C[C@@]21C [Methyltrienolone, methyltrienolone] | – | – | specific binding of extract containing the infused agent [2]: demonstrated specific binding |
| COc1cc(CNC(=O)CCCCC=CC(C)C)ccc1O [capsaicin, 8-methyl-N-vanillyl-6-nonenamide] | – | – | taste or "heat" compared with untreated control [3]: markedly and significantly “hotter” |
| O=C1NS(=O)(=O)c2ccccc21 [saccharin] | markedly and significantly sweeter | significantly enhanced over the untreated controls | – |
| COC(=O)[C@H](Cc1ccccc1)NC(=O)[C@@H](N)CC(=O)O [aspartame] (H-Asp-Phe-OMe) | markedly and significantly sweeter | significantly enhanced over the untreated controls | – |
| CN1C(=O)CN=C(c2ccccc2F)c2cc([N+](=O)[O-])ccc21 [[^3H] Flunitrazepam] | – | – | Kd ([1]; assay characteristic of the radioligand, bovine cortical membranes, read-out: KD (binding affinity)): 1.4 nM |
